Measured values published in PubChem BioAssay AID1845210 (Molecular Pharmacology Branch, DTP, NCI, 2023).
pIC50: −log10 of the molar value.

Tested on: NCI-H226 complex tumor spheroids, viability
Test: Anticancer human tumor NCI-H226 cell line growth inhibition;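 further: spheroids exposed to compound for 7 days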;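 on viability, T/C: 100% = DMSO vehicle control viability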
Conditions: for pIC50: curve of first compound; for viability, T/C: stronger effect = lower value
How it was run: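 Single agents and combinations were tested on spheroids built from tumor cells plus HUVEC and hMSC, at half-log dilutions starting at or near clinical Cmax, else 10 microM; final DMSO 0.25% (v/v).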

[1] = second compound 30 pM, first compound 0.0316 µM
[2] = second compound 30 pM, first compound 0.1 µM
[3] = second compound 30 pM, first compound 0.316 µM
[4] = second compound 30 pM, first compound 1 µM
[5] = second compound 30 pM, first compound 3.16 µM
[6] = second compound 30 pM, first compound 10 µM
[7] = second compound 94.9 pM, first compound 0.0316 µM
[8] = second compound 94.9 pM, first compound 0.1 µM
[9] = second compound 94.9 pM, first compound 0.316 µM
[10] = second compound 94.9 pM, first compound 1 µM
[11] = second compound 94.9 pM, first compound 3.16 µM
[12] = second compound 94.9 pM, first compound 10 µM
[13] = second compound 0.0003 µM, first compound 0.0316 µM
[14] = second compound 0.0003 µM, first compound 0.1 µM
[15] = second compound 0.0003 µM, first compound 0.316 µM
[16] = second compound 0.0003 µM, first compound 1 µM
[17] = second compound 0.0003 µM, first compound 3.16 µM
[18] = second compound 0.0003 µM, first compound 10 µM
[19] = second compound 0.000949 µM, first compound 0.0316 µM
[20] = second compound 0.000949 µM, first compound 0.1 µM
[21] = second compound 0.000949 µM, first compound 0.316 µM
[22] = second compound 0.000949 µM, first compound 1 µM
[23] = second compound 0.000949 µM, first compound 3.16 µM
[24] = second compound 0.000949 µM, first compound 10 µM
[25] = second compound 0.003 µM, first compound 0.0316 µM
[26] = second compound 0.003 µM, first compound 0.1 µM
[27] = second compound 0.003 µM, first compound 0.316 µM
[28] = second compound 0.003 µM, first compound 1 µM
[29] = second compound 0.003 µM, first compound 3.16 µM
[30] = second compound 0.003 µM, first compound 10 µM

`CC(C)n1c(=O)n(C)c2cnc3cc(F)c(-c4ccc(OCCCN5CCCCC5)nc4)cc3c21` + COc1cc2c(cc1O)CCNC21CSC2c3c(OC(C)=O)c(C)c4c(c3C(COC1=O)N1C(O)C3Cc5cc(C)c(OC)c(O)c5C(C21)N3C)OCO4 gave a pIC50 (second compound 30 pM) of 5.01, a pIC50 (second compound 94.9 pM) of 5.17 and a pIC50 (second compound 0.0003 µM) of 5.16. The pIC50 (second compound 0.000949 µM) was 5.17, the pIC50 (second compound 0.003 µM) was over 7.50 and the viability, T/C [1] was 110%. For the same compound, the viability, T/C [2] was 102%, the viability, T/C [3] was 121% and the viability, T/C [4] was 110%. It also gave a viability, T/C [5] of 91%, a viability, T/C [6] of 49.4% and a viability, T/C [7] of 108%. The viability, T/C [8] was 102%, the viability, T/C [9] was 112% and the viability, T/C [10] was 103%. The viability, T/C [11] was 90.4%, the viability, T/C [12] was 29.2% and the viability, T/C [13] was 107%. The viability, T/C [14] was 125%, the viability, T/C [15] was 122% and the viability, T/C [16] was 102%. The viability, T/C [17] was 102%, the viability, T/C [18] was 27.4% and the viability, T/C [19] was 98.2%. For the same compound, the viability, T/C [20] was 103%, the viability, T/C [21] was 104% and the viability, T/C [22] was 120%. It also gave a viability, T/C [23] of 97.4%, a viability, T/C [24] of 25.4% and a viability, T/C [25] of 1.2%. For the same compound, the viability, T/C [26] was 2.1%, the viability, T/C [27] was 1.2% and the viability, T/C [28] was 3.57%. It also gave a viability, T/C [29] of 1.96% and a viability, T/C [30] of 1%.

`CC1COCCN1c1cc(-c2ccnn2C)c2ccnc(-c3ccn[nH]3)c2n1` (stereo not given) + COc1cc2c(cc1O)CCNC21CSC2c3c(OC(C)=O)c(C)c4c(c3C(COC1=O)N1C(O)C3Cc5cc(C)c(OC)c(O)c5C(C21)N3C)OCO4 showed a pIC50 (second compound 30 pM) of 5.51, a pIC50 (second compound 94.9 pM) of under 5.00 and a pIC50 (second compound 0.0003 µM) of under 5.00. It also gave a pIC50 (second compound 0.000949 µM) of 5.44, a pIC50 (second compound 0.003 µM) of over 7.50 and a viability, T/C [1] of 120%. For the same compound, the viability, T/C [2] was 108%, the viability, T/C [3] was 89.1% and the viability, T/C [4] was 61.3%. It also gave a viability, T/C [5] of 50.9%, a viability, T/C [6] of 45.2% and a viability, T/C [7] of 106%. It also gave a viability, T/C [8] of 112%, a viability, T/C [9] of 80% and a viability, T/C [10] of 62.1%. It also gave a viability, T/C [11] of 53.5%, a viability, T/C [12] of 50.4% and a viability, T/C [13] of 109%. For the same compound, the viability, T/C [14] was 108%, the viability, T/C [15] was 98.9% and the viability, T/C [16] was 71.3%. The viability, T/C [17] was 57.8%, the viability, T/C [18] was 56.7% and the viability, T/C [19] was 126%. The viability, T/C [20] was 102%, the viability, T/C [21] was 90.6% and the viability, T/C [22] was 58.8%. For the same compound, the viability, T/C [23] was 53%, the viability, T/C [24] was 43.5% and the viability, T/C [25] was 1.51%. It also gave a viability, T/C [26] of 1.41%, a viability, T/C [27] of 1.32% and a viability, T/C [28] of 0.82%. It also gave a viability, T/C [29] of 0.74% and a viability, T/C [30] of 0.49%.

Compound `COc1cc(C)[nH]c(=O)c1CN1CCc2c(Cl)cc(C(OC)C3COC3)c(Cl)c2C1=O` (stereo not given) + COc1cc2c(cc1O)CCNC21CSC2c3c(OC(C)=O)c(C)c4c(c3C(COC1=O)N1C(O)C3Cc5cc(C)c(OC)c(O)c5C(C21)N3C)OCO4 has a pIC50 (second compound 30 pM) of under 5.00, a pIC50 (second compound 94.9 pM) of under 5.00 and a pIC50 (second compound 0.0003 µM) of under 5.00. It also gave a pIC50 (second compound 0.000949 µM) of under 5.00, a pIC50 (second compound 0.003 µM) of over 7.50 and a viability, T/C [1] of 115%. For the same compound, the viability, T/C [2] was 131%, the viability, T/C [3] was 128% and the viability, T/C [4] was 115%. The viability, T/C [5] was 126%, the viability, T/C [6] was 129% and the viability, T/C [7] was 103%. For the same compound, the viability, T/C [8] was 113%, the viability, T/C [9] was 125% and the viability, T/C [10] was 119%. The viability, T/C [11] was 127%, the viability, T/C [12] was 114% and the viability, T/C [13] was 133%. For the same compound, the viability, T/C [14] was 133%, the viability, T/C [15] was 130% and the viability, T/C [16] was 148%. For the same compound, the viability, T/C [17] was 140%, the viability, T/C [18] was 136% and the viability, T/C [19] was 103%. The viability, T/C [20] was 119%, the viability, T/C [21] was 111% and the viability, T/C [22] was 115%. For the same compound, the viability, T/C [23] was 114%, the viability, T/C [24] was 109% and the viability, T/C [25] was 3.38%. For the same compound, the viability, T/C [26] was 1.73%, the viability, T/C [27] was 1.1% and the viability, T/C [28] was 1.4%. It also gave a viability, T/C [29] of 1.04% and a viability, T/C [30] of 0.69%.

`COc1ccc([C@@H](O)c2cc(-c3ncnc4cc(N5CCOCC5)ccc34)c(F)cc2Cl)nn1` + COc1cc2c(cc1O)CCNC21CSC2c3c(OC(C)=O)c(C)c4c(c3C(COC1=O)N1C(O)C3Cc5cc(C)c(OC)c(O)c5C(C21)N3C)OCO4 showed a pIC50 (second compound 30 pM) of 5.20, a pIC50 (second compound 94.9 pM) of 5.40 and a pIC50 (second compound 0.0003 µM) of 5.37. It also gave a pIC50 (second compound 0.000949 µM) of 6.12, a pIC50 (second compound 0.003 µM) of over 7.50 and a viability, T/C [1] of 115%. The viability, T/C [2] was 108%, the viability, T/C [3] was 81.2% and the viability, T/C [4] was 80.5%. The viability, T/C [5] was 58%, the viability, T/C [6] was 43.6% and the viability, T/C [7] was 99.8%. The viability, T/C [8] was 105%, the viability, T/C [9] was 106% and the viability, T/C [10] was 76.5%. The viability, T/C [11] was 54.6%, the viability, T/C [12] was 43.5% and the viability, T/C [13] was 126%. The viability, T/C [14] was 130%, the viability, T/C [15] was 122% and the viability, T/C [16] was 95.4%. For the same compound, the viability, T/C [17] was 54.7%, the viability, T/C [18] was 37.5% and the viability, T/C [19] was 107%. The viability, T/C [20] was 112%, the viability, T/C [21] was 93.6% and the viability, T/C [22] was 36.4%. It also gave a viability, T/C [23] of 0.51%, a viability, T/C [24] of 0.24% and a viability, T/C [25] of 1.01%. It also gave a viability, T/C [26] of 0.79%, a viability, T/C [27] of 0.98% and a viability, T/C [28] of 0.69%. For the same compound, the viability, T/C [29] was 0.74% and the viability, T/C [30] was 1.08%.
